How the values were obtained:
male and female rats = experiment: von Frey mechanical withdrawal threshold after oxaliplatin CIPN induction; format: in vivo, rat; conditions: after single i.p. oxaliplatin 6 mg/kg, 3 days; baseline 72.9±2.7 grams
Method: Chronic pain models: Chemotherapy induced neuropathy was induced in rats with oxaliplatin after i.t catheter placement recovery with a single i.p. dose of oxaliplatin 6 mg/kg. The animals were allowed to recover for 3 days and then were assessed in the open field assay to ensure motor function and with a von Frey assay to assess allodynia to verify their pain state. The von Frey assay with an electronic aesthesiometer quantified the average baseline for a group of male and female rats to be 72.9±2.7 grams for the mechanical withdrawal threshold after cannulation but before CIPN model induction which fell to 27.9±2.7 grams indicating allodynia. On the day of treatment rats were assessed for baseline measures and then treated and assayed for […] responses.

rats = conditions: cited from earlier work

For `O=C1[O][Pt]2([NH][C@@H]3CCCC[C@H]3[NH]2)[O]C1=O` [oxaliplatin], the “mechanical withdrawal threshold (von Frey, electronic aesthesiometer)” value (male and female rats) was 27.9±2.7 grams.
For `CSCC[C@@H]1NC(=O)CNC(=O)[C@H](CCC(=O)O)NC(=O)[C@@H]2CSSC[C@H](NC(=O)[C@@H](N)Cc3ccc(O)cc3)C(=O)N[C@@H](CCC(N)=O)C(=O)N[C@@H](CCCCN)C(=O)N[C@@H](Cc3c[nH]c4ccccc34)C(=O)N[C@@H](CCSC)C(=O)N[C@@H](Cc3c[nH]c4ccccc34)C(=O)N[C@@H]([C@@H](C)O)C(=O)N[C@H]3CSSC[C@H](NC(=O)[C@H](C(C)C)NC1=O)C(=O)N[C@@H](CCCNC(=N)N)C(=O)N[C@@H](CC(C)C)C(=O)N[C@@H](Cc1c[nH]c4ccccc14)C(=O)N[C@H](C(=O)N[C@@H](CCCCN)C(=O)N[C@@H](CCCCN)C(=O)N[C@@H](CCCCN)C(=O)N[C@@H](CC(C)C)C(=O)N[C@@H](Cc1c[nH]c4ccccc14)C(=O)O)CSSC[C@H](NC(=O)[C@H](CCCCN)NC(=O)[C@H](CCCNC(=N)N)NC(=O)[C@H](CCC(=O)O)NC(=O)[C@H](CO)NC(=O)[C@H](CC(=O)O)NC3=O)C(=O)N2` [WT ProTx-II], the “motor effect after intrathecal administration” value (rats; 2.4 µg i.t., ref Schmalhofer et al., 2008) is given as “laming effect” and the “maximum tolerated dose in rats” value (rats; in 10 µL, intrathecal, ref Flinspach et al., 2017) is given as 2 µg.

— paper PMC9831606, “Computational design of peptides to target NaV1.7 channel with high potency and selectivity for the treatment of pain” (eLife, 2022)
